Data on eight molecules can be found in ChEMBL document CHEMBL4476885, “Multisubstituted 4h-thiazolo[4,5-e][1,4]diazepine-5,8-dione derivative and use thereof” (2017).

For this experiment, the system named is Mus musculus. The experiment in a line: Antiinflammatory activity in iv dosed ICR mouse model of CLP-induced sepsis assessed as increase in survival rate. Format: functional.
Turning to `CCCSc1nc2c(s1)C(=O)N1CCCCC1C(=O)N2` (stereo not drawn), the Activity is listed as 40%. With `CN1C(=O)C2CCCCN2C(=O)c2sc(Sc3ccccc3)nc21` (stereo not drawn), the Activity came out at 60%. Consider `COc1ccc(CNc2nc3c(s2)C(=O)N2CCCC2C(=O)N3)cc1` (stereo not drawn), for which the Activity is 40%. Under `O=C1C2CCCN2C(=O)c2sc(N3CCCCC3)nc2N1Cc1ccccc1` (stereo not drawn) stands 40%. In the case of `COc1ccc(CNc2nc3c(s2)C(=O)N(C)CC(=O)N3Cc2ccccc2)cc1`, the Activity amounted to 40%.

For `CCN1C(=O)C2CCCN2C(=O)c2sc(NCc3ccc(OC)cc3)nc21` (stereo not drawn), the Activity was 40%. Under `O=C1Nc2nc(N3CCOCC3)sc2C(=O)N2CCCC12` (stereo not drawn) stands 40%; under `CCCCNc1nc2c(s1)C(=O)N(Cc1ccccc1)CC(=O)N2`, 40%.
